Active and inactive are the calls of the source. The rule behind the calls is not given here.
Columns and labels:
[1] = target: T1, Muscarinic acetylcholine receptor M1 (Homo sapiens, UniProt P11229); assay: Binding affinity to human N-terminal eGFP-tagged CHRM1 expressed in HEK293T cells assessed as dissociation constant incubated for 10 mins by microscale thermophoresis assay; format: cell-based
T1 sequence (P11229 whole entry): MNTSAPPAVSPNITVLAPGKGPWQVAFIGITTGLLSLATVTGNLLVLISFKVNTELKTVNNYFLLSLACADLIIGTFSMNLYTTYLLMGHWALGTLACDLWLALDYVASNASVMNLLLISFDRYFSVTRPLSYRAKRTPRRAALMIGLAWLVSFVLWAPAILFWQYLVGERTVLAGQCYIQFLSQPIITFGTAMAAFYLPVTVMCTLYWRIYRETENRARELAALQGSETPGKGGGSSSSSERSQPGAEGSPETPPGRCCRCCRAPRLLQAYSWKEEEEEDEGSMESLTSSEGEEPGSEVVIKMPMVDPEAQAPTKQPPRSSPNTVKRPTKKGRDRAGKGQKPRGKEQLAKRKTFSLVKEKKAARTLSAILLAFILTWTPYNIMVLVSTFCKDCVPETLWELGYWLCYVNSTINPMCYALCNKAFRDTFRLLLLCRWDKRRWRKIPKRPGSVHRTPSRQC

Mus musculus [2] = assay: Antidepressant activity in Reserpine-induced depressive ICR mouse model assessed as change in total distance traveled at 25 to 300 microg/kg,ip administrated on day 4 to 8 measured on day 9 by open field test; format: functional, organism-based; conditions: dose 25-300 µg/kg, time 6.0 day
[3] = MRT (0 to infinity) in Sprague-Dawley rat at 0.3 mg/kg,iv measured at 0.05 to 24 hrs of post administration by LC-MS/MS analysis; format: ADME, organism-based; conditions: in vivo, time 0.05-24 hrs
HT-22 = assay: Neuroprotective activity against CORT-induced cytotoxicity in mouse HT-22 cells assessed as increase in cell viability at 12.5 to 100 uM incubated for 24 hrs by CCK-8 assay; format: functional, cell-based; conditions: dose 12.5-100 µM
[4] = Cmax in Sprague-Dawley rat at 0.3 mg/kg,iv measured at 0.05 to 24 hrs of post administration by LC-MS/MS analysis; format: ADME, organism-based; conditions: in vivo, time 0.05-24 hrs
[5] = Toxicity in chronic restraint stress-induced depressive C57BL/6J mouse model assessed as decrease in percentage of spontaneous alternation at 1 mg/kg,ip administration by Y-maze test; format: organism-based; conditions: in vivo
[6] = Tmax in Sprague-Dawley rat at 0.3 mg/kg,iv measured at 0.05 to 24 hrs of post administration by LC-MS/MS analysis; format: ADME, organism-based; conditions: in vivo, time 0.05-24 hrs
Mus musculus [7] = assay: Antidepressant activity in chronic restraint stress-induced depressive C57BL/6J mouse model assessed as increase in hippocampal BDNF protein expression at 0.3 mg/kg,ip administration measured after 8 hrs by Western blotting analysis; format: functional, organism-based
[8] = Toxicity in chronic restraint stress-induced depressive C57BL/6J mouse model assessed as spleen pathological change at 25 to 300 microg/kg,ip administrated on day 29 to 33 measured on day 36 by hematoxylin and eosin staining based microscopic analysis; format: tissue-based; conditions: in vivo, 192 h, dose 25-300 µg/kg, time 8 day
[9] = AUC (0 to infinity) in Sprague-Dawley rat at 0.3 mg/kg,ip measured at 0.05 to 24 hrs of post administration by LC-MS/MS analysis; format: ADME, organism-based; conditions: in vivo, time 0.05-24 hrs
Mus musculus [10] = assay: Antidepressant activity in Reserpine-induced depressive ICR mouse model assessed as decrease in immobility time at 300 microg/kg,ip administrated on day 4 to 8 measured on day 11 by tail suspension test; format: functional, organism-based; conditions: dose 300.0 µg/kg, time 8.0 day
[11] = MRT (0 to last) in Sprague-Dawley rat at 0.3 mg/kg,ip measured at 0.05 to 24 hrs of post administration by LC-MS/MS analysis; format: ADME, organism-based; conditions: in vivo, time 0.05-24 hrs
[12] = Half life in Sprague-Dawley rat at 0.3 mg/kg,iv measured at 0.05 to 24 hrs of post administration by LC-MS/MS analysis; format: ADME, organism-based; conditions: in vivo, time 0.05-24 hrs

## CN1[C@@H]2C[C@@H](OC(=O)[C@@](F)(CO)c3ccccc3)C[C@H]1[C@@H]1O[C@@H]12
[1]
  Kd: 336 µM
Mus musculus [2]
  Activity: inactive
[3]
  MRT inf: 16.6 min
HT-22
  Activity: Active
[4]
  Cmax: 230 ng/mL
[5]
  Activity: Non-Toxic
[6]
  Tmax: 3 min
Mus musculus [7]
  Activity: Active
[8]
  Activity: Non-Toxic
[9]
  AUC(0-inf): 25.9 ng·h/mL
Mus musculus [10]
  Activity: Active
[11]
  MRT last: 23 min
[12]
  half-life: 13.9 min
